Experimental data as given in ChEMBL document CHEMBL4613312, “Predictive Gene Signature for Pyrazolopyrimidine Derivative c-Src Inhibitor 10a Sensitivity in Melanoma Cells” (ACS Med Chem Lett, 2020).
Calls of active or inactive are those of the source. No cut-off for these calls is given here.

Key:
Homo sapiens [1] = species: Homo sapiens; experiment: Cytotoxicity against human M221 cells assessed as reduction in cell viability at 50 to 800 nM measured after 72 hrs by Celltiter-Glo luminescent assay; assay type: functional, cell-based
Homo sapiens [2] = species: Homo sapiens; experiment: Cytotoxicity against human M193 cells assessed as reduction in cell viability at 0.8 to 6 mM measured after 72 hrs by Celltiter-Glo luminescent assay; assay type: functional, cell-based
[3] = Cytotoxicity against human M193 cells assessed as reduction in cell viability at 20 uM measured after 72 hrs by Celltiter-Glo luminescent assay relative to control; assay type: functional
[4] = Cytotoxicity against human M307 cells assessed as reduction in cell viability measured after 72 hrs by Celltiter-Glo luminescent assay; assay type: functional, cell-based
[5] = Cytotoxicity against human M133 cells assessed as reduction in cell viability measured after 72 hrs by Celltiter-Glo luminescent assay; assay type: functional, cell-based
[6] = Cytotoxicity against human M189 cells assessed as reduction in cell viability measured after 72 hrs by Celltiter-Glo luminescent assay; assay type: functional, cell-based
[7] = Cytotoxicity against human SHM20A2 cells assessed as reduction in cell viability measured after 72 hrs by Celltiter-Glo luminescent assay; assay type: functional, cell-based
[8] = Cytotoxicity against human M187 cells assessed as reduction in cell viability measured after 72 hrs by Celltiter-Glo luminescent assay; assay type: functional, cell-based
[9] = Cytotoxicity against human M144 cells assessed as reduction in cell viability measured after 72 hrs by Celltiter-Glo luminescent assay; assay type: functional, cell-based
[10] = Cytotoxicity against human M24 cells assessed as reduction in cell viability measured after 72 hrs by Celltiter-Glo luminescent assay; assay type: functional, cell-based; details: M24, 72 h
M34 [11] = experiment: Cytotoxicity against human M34 cells assessed as reduction in cell viability measured after 72 hrs by Celltiter-Glo luminescent assay; assay type: functional, cell-based; details: M34, 72 h
[12] = Cytotoxicity against human M77 cells assessed as reduction in cell viability measured after 72 hrs by Celltiter-Glo luminescent assay; assay type: functional, cell-based
[13] = Cytotoxicity against human M7 cells assessed as reduction in cell viability measured after 72 hrs by Celltiter-Glo luminescent assay; assay type: functional, cell-based
[14] = Cytotoxicity against human M1 cells assessed as reduction in cell viability measured after 72 hrs by Celltiter-Glo luminescent assay; assay type: functional, cell-based
[15] = Cytotoxicity against human M433 cells assessed as reduction in cell viability measured after 72 hrs by Celltiter-Glo luminescent assay; assay type: functional, cell-based
[16] = Cytotoxicity against human M2025 cells assessed as reduction in cell viability measured after 72 hrs by Celltiter-Glo luminescent assay; assay type: functional, cell-based
[17] = Cytotoxicity against human M221 cells assessed as reduction in cell viability measured after 72 hrs by Celltiter-Glo luminescent assay; assay type: functional, cell-based
[18] = Cytotoxicity against human M193 cells assessed as reduction in cell viability measured after 72 hrs by Celltiter-Glo luminescent assay; assay type: functional, cell-based
[19] = Synergistic cytotoxicity against human M193 cells assessed as combination index at 20 uM measured after 72 hrs in presence of 6 mM sodium valproate by Celltiter-Glo luminescent assay based Chou-Talalay method; assay type: functional
[20] = Synergistic cytotoxicity against human M193 cells assessed as combination index at 20 uM measured after 72 hrs in presence of 4 mM sodium valproate by Celltiter-Glo luminescent assay based Chou-Talalay method; assay type: functional
[21] = Synergistic cytotoxicity against human M193 cells assessed as combination index at 20 uM measured after 72 hrs in presence of 0.8 mM sodium valproate by Celltiter-Glo luminescent assay based Chou-Talalay method; assay type: functional
[22] = Synergistic cytotoxicity against human M221 cells assessed as combination index at 20 uM measured after 72 hrs in presence of 0.8 mM sodium valproate by Celltiter-Glo luminescent assay based Chou-Talalay method; assay type: functional
[23] = Synergistic cytotoxicity against human M221 cells assessed as combination index at 20 uM measured after 72 hrs in presence of 0.2 mM sodium valproate by Celltiter-Glo luminescent assay based Chou-Talalay method; assay type: functional
[24] = Synergistic cytotoxicity against human M221 cells assessed as combination index at 20 uM measured after 72 hrs in presence of 0.05 mM sodium valproate by Celltiter-Glo luminescent assay based Chou-Talalay method; assay type: functional
[25] = Chemosensitization activity in human M221 cells assessed as reduction in cell viability at 20 uM measured after 72 hrs in presence of 0.8 mM sodium valproate by Celltiter-Glo luminescent assay relative to control; assay type: functional
[26] = Chemosensitization activity in human M221 cells assessed as reduction in cell viability at 20 uM measured after 72 hrs in presence of 200 nM sodium valproate by Celltiter-Glo luminescent assay relative to control; assay type: functional
[27] = Chemosensitization activity in human M221 cells assessed as reduction in cell viability at 20 uM measured after 72 hrs in presence of 50 nM sodium valproate by Celltiter-Glo luminescent assay relative to control; assay type: functional
[28] = Cytotoxicity against human M221 cells assessed as reduction in cell viability at 20 uM measured after 72 hrs by Celltiter-Glo luminescent assay relative to control; assay type: functional
[29] = Chemosensitization activity in human M193 cells assessed as reduction in cell viability at 20 uM measured after 72 hrs in presence of 0.8 mM sodium valproate by Celltiter-Glo luminescent assay relative to control; assay type: functional
[30] = Chemosensitization activity in human M193 cells assessed as reduction in cell viability at 20 uM measured after 72 hrs in presence of 4 mM sodium valproate by Celltiter-Glo luminescent assay relative to control; assay type: functional
[31] = Chemosensitization activity in human M193 cells assessed as reduction in cell viability at 20 uM measured after 72 hrs in presence of 6 mM sodium valproate by Celltiter-Glo luminescent assay relative to control; assay type: functional
M34 [32] = experiment: Upregulation of TMED7 mRNA level in human M34 cells by SYBR-green dye based qRT-PCR analysis; assay type: functional, cell-based
M34 [33] = experiment: Upregulation of PLOD2 mRNA level in human M34 cells by SYBR-green dye based qRT-PCR analysis; assay type: functional, cell-based
M34 [34] = experiment: Downregulation of XRCC5 mRNA level in human M34 cells by SYBR-green dye based qRT-PCR analysis; assay type: functional, cell-based
M34 [35] = experiment: Downregulation of NSUN5 mRNA level in human M34 cells by SYBR-green dye based qRT-PCR analysis; assay type: functional, cell-based
Homo sapiens [36] = species: Homo sapiens; experiment: Upregulation of TMED7 mRNA level in human M433 cells by SYBR-green dye based qRT-PCR analysis; assay type: functional, cell-based
Homo sapiens [37] = species: Homo sapiens; experiment: Upregulation of PLOD2 mRNA level in human M433 cells by SYBR-green dye based qRT-PCR analysis; assay type: functional, cell-based
Homo sapiens [38] = species: Homo sapiens; experiment: Downregulation of XRCC5 mRNA level in human M433 cells by SYBR-green dye based qRT-PCR analysis; assay type: functional, cell-based
Homo sapiens [39] = species: Homo sapiens; experiment: Downregulation of NSUN5 mRNA level in human M433 cells by SYBR-green dye based qRT-PCR analysis; assay type: functional, cell-based
Homo sapiens [40] = species: Homo sapiens; experiment: Upregulation of TMED7 mRNA level in human M2025 cells by SYBR-green dye based qRT-PCR analysis; assay type: functional, cell-based
Homo sapiens [41] = species: Homo sapiens; experiment: Upregulation of PLOD2 mRNA level in human M2025 cells by SYBR-green dye based qRT-PCR analysis; assay type: functional, cell-based
Homo sapiens [42] = species: Homo sapiens; experiment: Downregulation of XRCC5 mRNA level in human M2025 cells by SYBR-green dye based qRT-PCR analysis; assay type: functional, cell-based
Homo sapiens [43] = species: Homo sapiens; experiment: Downregulation of NSUN5 mRNA level in human M2025 cells by SYBR-green dye based qRT-PCR analysis; assay type: functional, cell-based
Homo sapiens [44] = species: Homo sapiens; experiment: Upregulation of TMED7 mRNA level in human M221 cells by SYBR-green dye based qRT-PCR analysis; assay type: functional, cell-based
Homo sapiens [45] = species: Homo sapiens; experiment: Upregulation of PLOD2 mRNA level in human M221 cells by SYBR-green dye based qRT-PCR analysis; assay type: functional, cell-based
Homo sapiens [46] = species: Homo sapiens; experiment: Downregulation of XRCC5 mRNA level in human M221 cells by SYBR-green dye based qRT-PCR analysis; assay type: functional, cell-based
Homo sapiens [47] = species: Homo sapiens; experiment: Downregulation of NSUN5 mRNA level in human M221 cells by SYBR-green dye based qRT-PCR analysis; assay type: functional, cell-based
Homo sapiens [48] = species: Homo sapiens; experiment: Upregulation of TMED7 mRNA level in human M193 cells by SYBR-green dye based qRT-PCR analysis; assay type: functional, cell-based
Homo sapiens [49] = species: Homo sapiens; experiment: Upregulation of PLOD2 mRNA level in human M193 cells by SYBR-green dye based qRT-PCR analysis; assay type: functional, cell-based
Homo sapiens [50] = species: Homo sapiens; experiment: Downregulation of XRCC5 mRNA level in human M193 cells by SYBR-green dye based qRT-PCR analysis; assay type: functional, cell-based
Homo sapiens [51] = species: Homo sapiens; experiment: Downregulation of NSUN5 mRNA level in human M193 cells by SYBR-green dye based qRT-PCR analysis; assay type: functional, cell-based

Structure (SMILES): CCCC(CCC)C(=O)O
- Activity (Homo sapiens [1]): inactive
- Activity (Homo sapiens [2]): inactive

Structure (SMILES): CSc1nc(Nc2cccc(Cl)c2)c2cnn(CCc3ccccc3)c2n1
- Activity [3]: 47%
- IC50 [4]: 0.09 to 9.01 µM
- IC50 [5]: 0.09 to 9.01 µM
- IC50 [6]: 0.09 to 9.01 µM
- IC50 [7]: 0.09 to 9.01 µM
- IC50 [8]: 0.09 to 9.01 µM
- IC50 [9]: 0.09 to 9.01 µM
- IC50 [10]: 0.09 to 9.01 µM
- IC50 (M34 [11]): 0.09 to 9.01 µM
- IC50 [12]: 0.09 to 9.01 µM
- IC50 [13]: 0.09 to 9.01 µM
- IC50 [14]: 0.09 to 9.01 µM
- IC50 [15]: 0.09 to 9.01 µM
- IC50 [16]: 0.09 to 9.01 µM
- IC50 [17]: 0.09 to 9.01 µM
- IC50 [18]: 0.09 to 9.01 µM
- CI [19]: 0.696
- CI [20]: 0.76
- CI [21]: 0.835
- CI [22]: 0.603
- CI [23]: 0.681
- CI [24]: 0.766
- Activity [25]: 92%
- Activity [26]: 84%
- Activity [27]: 75%
- Activity [28]: 55%
- Activity [29]: 75%
- Activity [30]: 84%
- Activity [31]: 89%
- Activity (M34 [32]): Active
- Activity (M34 [33]): Active
- Activity (M34 [34]): Active
- Activity (M34 [35]): Active
- Activity (Homo sapiens [36]): Active
- Activity (Homo sapiens [37]): Active
- Activity (Homo sapiens [38]): Active
- Activity (Homo sapiens [39]): Active
- Activity (Homo sapiens [40]): Active
- Activity (Homo sapiens [41]): Active
- Activity (Homo sapiens [42]): Active
- Activity (Homo sapiens [43]): Active
- Activity (Homo sapiens [44]): Active
- Activity (Homo sapiens [45]): Active
- Activity (Homo sapiens [46]): Active
- Activity (Homo sapiens [47]): Active
- Activity (Homo sapiens [48]): Active
- Activity (Homo sapiens [49]): Active
- Activity (Homo sapiens [50]): Active
- Activity (Homo sapiens [51]): Active
